Drawing on US20060004002A1 (priority 2004, published 2006), this text covers IC50 for 19 molecules.

For this experiment, the target named is T1, Recombinant human Src (Homo sapiens, UniProt P12931).
T1 construct: made in house; host or cells: baculovirus-insect cell system
Put plainly: Src tyrosine kinase activity assay with poly E4Y and 32P-ATP. It is filed as biochemical. To be noted: poly E4Y, 32P-ATP; NI = no inhibition; read-out: IC50 Value Src. The method, then: Recombinant human Src was expressed using the baculovirus-insect cell system and purified as published (Budde et al., 1993 and 2000). Recombinant Csk and the FGF receptor (FGFr) were expressed as […] fusion proteins using the pGEX expression vector and E. coli, and purified as described (Sun & Budde, 1995).
The tyrosine kinase activity of Src, Csk and FGFr was determined using poly E4Y and ^32P-ATP. Briefly, enzymes were assayed in a reaction mixture […] consisting of 0.15 M EPPS-NaOH (pH 8.0) with 6 mM MgCl2, 0.2 mM γ^32P-ATP (0.2-0.4 mCi/μmol), 10% glycerol, 0.1% Triton X-100, and poly E4Y. Poly E4Y is a synthetic peptide whose phosphorylation is measured in this assay by the addition of the radioactively labeled phosphate from the ATP (Budde et al., 1995). […] When ATP was varied (0, 50, 100 and 250 μM), poly E4Y was kept constant at 150 μg/ml.
Consider `CCOc1cc(F)ccc1-c1sc2c(NN=Cc3cc(OC)c(OCCN(CC)CC)c(OC)c3)ncnc2c1O` [Compound 159, 4-(2-Diethylamino-ethoxy)-3,5-dimethoxy-benzaldehyde (6-(2-ethoxy-4-fluorophenyl)-7-hydroxythieno[3,2-d]pyrimidin-4-yl)hydrazone], for which the half-maximal inhibitory concentration (IC50) is 0.56 nM.

For `CCOc1ccccc1-c1sc2c(NN=Cc3ccncc3)ncnc2c1C#N` [compound 110], the IC50 stood at 1.9 nM.

On to `Cc1c(-c2cccc(C#N)c2)sc2c(NN=Cc3cccnc3)ncnc12` [Compound 29, 3-Pyridinecarboxaldehyde (6-(3-cyanophenyl)-7-methylthieno[3,2-d]pyrimidin-4-yl)hydrazone], for which the IC50 was found to be 27 nM. Turning to `CCOc1ccccc1-c1sc2c(NN=Cc3ccc(NC(C)=O)cc3)ncnc2c1C#N` [compound 130], the IC50 is 1.8 nM. Turning to `CCOc1ccccc1-c1sc2c(NN=Cc3ccsc3)ncnc2c1C#N` [compound 91], the concentration for half-maximal inhibition (IC50) worked out at 0.58 nM. Under `CCOc1ccccc1-c1sc2c(NN=Cc3ccc(C)s3)ncnc2c1C#N` [compound 126] stands 4.9 nM; under `CCOCc1c(-c2ccccc2OCC)sc2c(NN=Cc3ccc(OC)c(O)c3)ncnc12` [Compound 44], 79 nM; under `CCOc1cc(F)ccc1-c1sc2c(NN=Cc3cccs3)ncnc2c1C#N` [compound 108], 8.5 nM. With `CCOc1ccccc1-c1sc2c(NN=Cc3ccc(F)c(Cl)c3)ncnc2c1O` [Compound 125, 3-Chloro-4-fluorobenzaldehyde (6-(2-ethoxyphenyl)-7-hydroxythieno[3,2-d]pyrimidin-4-yl)hydrazone], the 50% inhibitory concentration (IC50) amounted to 45 nM. Under “4-Carboxybenzaldehyde (6-(4-aminomethyl)phenyl-7-methylthieno[3,2-d]pyrimidin-4-yl)hydrazone [Compound 2]” stands 24 nM; under `CCOc1ccccc1-c1sc2c(NN=Cc3cc(O)c(OC)c(OC)c3)ncnc2c1C#N` [compound 98], 1 nM. Take `CCOc1ccccc1-c1sc2c(NN=Cc3ccc(C)o3)ncnc2c1C#N` [compound 134]: the IC50 came to 2.6 nM.

As for `CCOc1cc(F)ccc1-c1sc2c(NN=Cc3ccc(OC)c(O)c3)ncnc2c1C` [Compound 57, 3-Hydroxy-4-methoxybenzaldehyde (6-(2-ethoxy-4-fluorophenyl)-7-methylthieno[3,2-d]pyrimidin-4-yl)hydrazone], the IC50 is 4.9 nM. In the case of `CCOc1ccccc1-c1sc2c(NN=Cc3ccoc3)ncnc2c1C#N` [compound 127], the IC50 was 3 nM. As for `COc1ccc(C=NNc2ncnc3c(C)c(-c4cccc(C(N)=O)c4)sc23)cc1O` [Compound 19, 3-Hydroxy-4-methoxybenzaldehyde (6-(3-aminocarbonylphenyl)-7-methylthieno[3,2-d]pyrimidin-4-yl)hydrazone], the half-maximal inhibitory concentration (IC50) worked out at 14 nM. Under `Cc1c(-c2ccc(C(N)=O)cc2)sc2c(NN=Cc3ccc(C(=O)O)cc3)ncnc12` [Compound 26, 4-Carboxybenzaldehyde (6-(4-aminocarbonylphenyl)-7-methylthieno[3,2-d]pyrimidin-4-yl)hydrazone] stands 36 nM; under `COc1ccc(C=NNc2ncnc3c(C)c(-c4ccc(N)cc4)sc23)cc1O` [Compound 10, 3-Hydroxy-4-methoxybenzaldehyde (6-(4-aminophenyl)-7-methylthieno[3,2-d]pyrimidin-4-yl)hydrazone], 8.7 nM. Take `COc1ccc(C=NNc2ncnc3c(C)c(-c4ccc(O)cc4)sc23)cc1O` [Compound 38, 3-Hydroxy-4-methoxybenzaldehyde (6-(4-hydroxyphenyl)-7-methylthieno[3,2-d]pyrimidin-4-yl)hydrazone]: the IC50 came out at 15 nM. Then `CCOc1ccccc1-c1sc2c(NN=Cc3cccs3)ncnc2c1CO` [Compound 71, 2-Thiophenecarboxaldehyde (6-(2-ethoxyphenyl)-7-hydroxymethylthieno[3,2-d]pyrimidin-4-yl)hydrazone], with 28 nM.
